The source made the active and inactive calls. No cut-off for these calls is given here.
Columns and labels:
[1] = tested on: Mus musculus; assay: Toxicity in BALB/c mdb mouse implanted with mouse 4T1 cells assessed as serum urea level at 100 umol/kg, ip administered five times weekly measured at 29 day post cell innoculum (reference value: 3.8 +/- […]); type: organism-based; details: in vivo, 696 h
[2] = tested on: 4T1; assay: Cytotoxicity against mouse 4T1 cells after 72 hrs by sulforhodamine B assay; type: functional, cell-based; details: 4T1, 72 h
[3] = tested on: Mus musculus; assay: Toxicity in BALB/c mdb mouse implanted with mouse 4T1 cells assessed as serum ALT level at 100 umol/kg, ip administered five times weekly measured at 29 day post cell innoculum (reference value: 23.8 +/- 2.2 U/L); type: organism-based; details: in vivo, 696 h
[4] = tested on: LoVo; assay: Potency index, ratio of benzyl isothiocyanate IC50 to compound IC50 for human LoVo cells; type: functional
[5] = tested on: Mus musculus; assay: Toxicity in BALB/c mdb mouse implanted with mouse 4T1 cells assessed as serum PLT level at 100 umol/kg, ip administered five times weekly measured at 29 day post cell innoculum (reference value: 972 +/- 157 10^3/uL); type: organism-based; details: in vivo, 696 h
[6] = Induction of apoptosis in human LoVo/DX cells assessed as increase in caspase3/7 activity at 15 uM using Ac-DEVD-ACC as substrate pretreated for 24 hrs followed by substrate addition measured for 2 hrs by fluorescence assay relative to control; type: functional
[7] = tested on: HL-60; assay: Cytotoxicity against human HL60 cells after 72 hrs by sulforhodamine B assay; type: functional, cell-based; details: HL-60, 72 h
[8] = tested on: 4T1; assay: Anti-tumor activity against mouse 4T1 cells implanted in BALB/c mdb mouse assessed as tumor growth inhibition at 100 umol/kg, ip administered five times weekly measured on day 15 post cell innoculum relative to control; type: functional; details: 4T1, ip, 360 h, read-out: TGI
[9] = tested on: Mus musculus; assay: Toxicity in BALB/c mdb mouse implanted with mouse 4T1 cells assessed as hematocrit at 100 umol/kg, ip administered five times weekly measured at 29 day post cell innoculum (reference value: 39.9 +/- 3.7 %); type: organism-based; details: in vivo, 696 h
[10] = tested on: LoVo; assay: Induction of apoptosis in human LoVo cells assessed as increase in caspase3/7 activity at >15 uM using Ac-DEVD-ACC as substrate pretreated for 24 hrs followed by substrate addition measured for 2 hrs by fluorescence assay; type: functional, cell-based
[11] = tested on: LoVo; assay: Induction of apoptosis in human LoVo cells assessed as late apoptotic cells at 15 uM after 24 hrs by APC-Annexin-V/propidium iodide staining based flow cytometric method relative to control; type: functional
[12] = tested on: Mus musculus; assay: Toxicity in BALB/c mdb mouse implanted with mouse 4T1 cells assessed as body weight loss at 100 umol/kg, ip administered five times weekly measured 3 times weekly during compound dosing; type: organism-based; details: in vivo
[13] = tested on: LoVo/DX; assay: Cell cycle arrest in human LoVo/DX cells assessed as accumulation at G2/M phase at 15 uM after 24 hrs by propidium iodide staining based flow cytometric method; type: functional
[14] = tested on: BALB/3T3; assay: Cytotoxicity against mouse BALB/3T3 cells after 72 hrs by sulforhodamine B assay; type: cell-based; details: BALB/3T3, 72 h
[15] = tested on: LoVo/DX; assay: Induction of apoptosis in human LoVo/DX cells assessed as increase in caspase3/7 activity at >15 uM using Ac-DEVD-ACC as substrate pretreated for 24 hrs followed by substrate addition measured for 2 hrs by fluorescence assay; type: functional, cell-based
[16] = Resistance index, ratio of IC50 for human HL60/MX2 cells to IC50 for human HL60 cells; type: functional
[17] = tested on: LoVo/DX; assay: Cell cycle arrest in human LoVo/DX cells assessed as decrease in accumulation at G0/G1 phase at 15 uM after 24 hrs by propidium iodide staining based flow cytometric method; type: functional
[18] = tested on: Mus musculus; assay: Toxicity in BALB/c mdb mouse implanted with mouse 4T1 cells assessed as lung weight at 100 umol/kg, ip administered five times weekly measured at 29 day post cell innoculum (reference value: 0.2 +/- 0.018 g); type: organism-based; details: in vivo, 696 h
[19] = tested on: 4T1; assay: Anti-tumor activity against mouse 4T1 cells implanted in BALB/c mdb mouse assessed as tumor growth inhibition at 100 umol/kg, ip administered five times weekly measured on day 29 post cell innoculum relative to control; type: functional; details: 4T1, ip, 696 h, read-out: TGI
[20] = tested on: LoVo; assay: Cell cycle arrest in human LoVo cells assessed as accumulation at G2/M phase at 15 uM after 24 hrs by propidium iodide staining based flow cytometric method; type: functional
[21] = tested on: 4T1; assay: Anti-tumor activity against mouse 4T1 cells implanted in BALB/c mdb mouse assessed as lung metastasis at 100 umol/kg, ip administered five times weekly measured at 29 days post cell innoculum (reference value: 56 +/- 25); type: functional
[22] = Resistance index, ratio of IC50 for human LoVo/DX cells to IC50 for human LoVo cells; type: functional
[23] = tested on: Mus musculus; assay: Nephrotoxicity in BALB/c mdb mouse implanted with mouse 4T1 cells assessed as kidney weight at 100 umol/kg, ip administered five times weekly measured at 29 day post cell innoculum (reference value: 0.136 +/- 0.006 g); type: toxicity, organism-based; details: in vivo, 696 h
[24] = tested on: Mus musculus; assay: Toxicity in BALB/c mdb mouse implanted with mouse 4T1 cells assessed as hemoglobin level at 100 umol/kg, ip administered five times weekly measured at 29 day post cell innoculum (reference value: 15.1 +/- 1.5 g/dl); type: organism-based; details: in vivo, 696 h
[25] = tested on: Mus musculus; assay: Toxicity in BALB/c mdb mouse implanted with mouse 4T1 cells assessed as serum AST level at 100 umol/kg, ip administered five times weekly measured at 29 day post cell innoculum (reference value: 136 +/- 10.3 U/L); type: organism-based; details: in vivo, 696 h
[26] = tested on: LoVo; assay: Induction of apoptosis in human LoVo cells assessed as increase in caspase3/7 activity at 15 uM using Ac-DEVD-ACC as substrate pretreated for 24 hrs followed by substrate addition measured for 2 hrs by fluorescence assay relative to control; type: functional
[27] = tested on: LoVo; assay: Induction of apoptosis in human LoVo cells assessed as loss of mitochondrial membrane potential at 15 uM after 24 hrs by JC-1 staining based flow cytometric method relative to control; type: functional
[28] = tested on: Mus musculus; assay: Toxicity in BALB/c mdb mouse implanted with mouse 4T1 cells assessed as RBC level at 100 umol/kg, ip administered five times weekly measured at 29 day post cell innoculum (reference value: 8.6 +/- 0.9 10^6/uL); type: organism-based; details: in vivo, 696 h
[29] = Cytotoxicity against human LoVo/DX cells after 72 hrs by sulforhodamine B assay; type: functional, cell-based
[30] = tested on: MES-SA; assay: Cytotoxicity against human MESSA cells after 72 hrs by sulforhodamine B assay; type: functional, cell-based
[31] = tested on: Mus musculus; assay: Toxicity in BALB/c mdb mouse implanted with mouse 4T1 cells assessed as serum creatinine level at 100 umol/kg, ip administered five times weekly measured at 29 day post cell innoculum (reference value: 9.3 +/- 1.2 umol/L); type: organism-based; details: in vivo, 696 h
[32] = tested on: LoVo; assay: Cell cycle arrest in human LoVo cells assessed as decrease in accumulation at G0/G1 phase at 15 uM after 24 hrs by propidium iodide staining based flow cytometric method; type: functional
[33] = tested on: Mus musculus; assay: Hepatotoxicity in BALB/c mdb mouse implanted with mouse 4T1 cells assessed as liver weight at 100 umol/kg, ip administered five times weekly measured at 29 day post cell innoculum (reference value: 1.2 +/- 0.13 g); type: toxicity, organism-based; details: in vivo, 696 h
[34] = tested on: HL60/MX2; assay: Cytotoxicity against human HL60/MX2 cells after 72 hrs by sulforhodamine B assay; type: functional, cell-based; details: HL60/MX2, 72 h
[35] = tested on: MES-SA/Dx5; assay: Cytotoxicity against human MESSA/DX5 cells after 72 hrs by sulforhodamine B assay; type: functional, cell-based; details: MES-SA/Dx5, 72 h

## O=P(CCCCCCN=C=S)(Oc1ccccc1)Oc1ccccc1
[1]
  Activity: 4.9 mmol/L
[2]
  IC50: 2.9 µM
[3]
  Activity: 33.3 U/L
[4]
  Ratio IC50: 5
[5]
  Activity: 855 ×10³ /uL
[6]
  fold change (FC): 6.8
[7]
  IC50: 0.8 µM
[8]
  inhibition in vivo at 100 µmol/kg: 23.1%
[9]
  Activity: 57.6%
[10]
  Activity: inactive
[11]
  Activity: 54.6%
[12]
  Activity: <= 10%
[13]
  Activity: Active
[14]
  IC50: 11.5 µM
[15]
  Activity: inactive
[16]
  Ratio IC50: 4.3
[17]
  Activity: Active
[18]
  Activity: 0.294 g
[19]
  inhibition in vivo at 100 µmol/kg: -6.4%
[20]
  Activity: Active
[21]
  Activity: 46
[22]
  Ratio IC50: 4
[23]
  Activity: 0.143 g
[24]
  Activity: 20.8 g/dL
[25]
  Activity: 153 U/L
[26]
  fold change (FC): 6.8
[27]
  Activity: 79.3%
[28]
  Activity: 11.6 ×10⁶ /uL
[29]
  IC50: 11.2 µM
[30]
  IC50: 10.6 µM
[31]
  Activity: 8.4 µmol/L
[32]
  Activity: Active
[33]
  Activity: 1.32 g
[34]
  IC50: 3.3 µM
[35]
  IC50: 8.3 µM
